Data reported in publication PMC4979471 (Cell Death Discovery, 2015).
Like-named read-outs stand apart in the source and are kept apart here.

What was measured:
Experiment in all cases: Kinase selectivity, P33-radiolabeled assay
Assay type in all cases: biochemical
Settings in all cases: 10 μM ATP
BMPR2 = biological target: T1, BMPR2 (Homo sapiens, UniProt Q13873)
T1 construct: purchased Reaction Biology Corp
T1 sequence (Q13873 27-1038): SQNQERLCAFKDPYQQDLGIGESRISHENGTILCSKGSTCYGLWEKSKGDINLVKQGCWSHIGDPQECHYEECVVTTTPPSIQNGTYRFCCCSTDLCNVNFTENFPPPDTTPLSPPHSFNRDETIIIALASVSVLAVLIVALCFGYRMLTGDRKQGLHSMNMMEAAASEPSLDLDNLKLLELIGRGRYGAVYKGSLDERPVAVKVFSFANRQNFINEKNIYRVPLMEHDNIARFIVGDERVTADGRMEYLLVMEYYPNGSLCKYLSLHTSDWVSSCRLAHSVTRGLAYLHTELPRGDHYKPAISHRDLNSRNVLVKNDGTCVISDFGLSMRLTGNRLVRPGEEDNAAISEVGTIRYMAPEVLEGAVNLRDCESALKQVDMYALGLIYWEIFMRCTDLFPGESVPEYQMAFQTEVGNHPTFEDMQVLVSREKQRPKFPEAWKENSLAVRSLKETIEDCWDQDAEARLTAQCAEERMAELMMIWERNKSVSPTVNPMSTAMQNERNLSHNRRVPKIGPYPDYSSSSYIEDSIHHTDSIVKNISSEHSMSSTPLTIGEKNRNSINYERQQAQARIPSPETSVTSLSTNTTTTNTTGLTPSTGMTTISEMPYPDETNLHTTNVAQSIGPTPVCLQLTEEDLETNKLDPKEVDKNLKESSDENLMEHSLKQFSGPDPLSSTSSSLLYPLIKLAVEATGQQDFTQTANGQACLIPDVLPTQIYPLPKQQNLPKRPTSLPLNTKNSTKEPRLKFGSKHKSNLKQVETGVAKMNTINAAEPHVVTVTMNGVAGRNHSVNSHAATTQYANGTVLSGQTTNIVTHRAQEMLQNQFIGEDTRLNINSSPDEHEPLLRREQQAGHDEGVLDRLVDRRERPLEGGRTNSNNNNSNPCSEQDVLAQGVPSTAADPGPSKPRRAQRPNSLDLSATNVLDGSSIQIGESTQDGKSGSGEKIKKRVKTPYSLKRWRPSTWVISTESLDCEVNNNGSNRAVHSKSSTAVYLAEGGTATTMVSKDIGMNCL
Method in brief: (§1)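 Each enzyme was exposed to 10 μM compound, with duplicate measurements, in reactions containing 10 μM ATP. Numbers are remaining activity as a percent of the vehicle (DMSO) signal.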

CDK1/cyclin E = biological target: T2, CDK1/cyclin E (Homo sapiens, UniProt P06493)
T2 construct: purchased Reaction Biology Corp
Method in brief: as §1

CDK2/cyclin E = biological target: T3, CDK2/cyclin E (Homo sapiens, UniProt P24941)
T3 construct: purchased Reaction Biology Corp
Method in brief: as §1

FLT4/VEGFR3 = biological target: T4, FLT4/VEGFR3 (Homo sapiens, UniProt P35916)
T4 construct: purchased Reaction Biology Corp
T4 sequence (P35916 25-1363): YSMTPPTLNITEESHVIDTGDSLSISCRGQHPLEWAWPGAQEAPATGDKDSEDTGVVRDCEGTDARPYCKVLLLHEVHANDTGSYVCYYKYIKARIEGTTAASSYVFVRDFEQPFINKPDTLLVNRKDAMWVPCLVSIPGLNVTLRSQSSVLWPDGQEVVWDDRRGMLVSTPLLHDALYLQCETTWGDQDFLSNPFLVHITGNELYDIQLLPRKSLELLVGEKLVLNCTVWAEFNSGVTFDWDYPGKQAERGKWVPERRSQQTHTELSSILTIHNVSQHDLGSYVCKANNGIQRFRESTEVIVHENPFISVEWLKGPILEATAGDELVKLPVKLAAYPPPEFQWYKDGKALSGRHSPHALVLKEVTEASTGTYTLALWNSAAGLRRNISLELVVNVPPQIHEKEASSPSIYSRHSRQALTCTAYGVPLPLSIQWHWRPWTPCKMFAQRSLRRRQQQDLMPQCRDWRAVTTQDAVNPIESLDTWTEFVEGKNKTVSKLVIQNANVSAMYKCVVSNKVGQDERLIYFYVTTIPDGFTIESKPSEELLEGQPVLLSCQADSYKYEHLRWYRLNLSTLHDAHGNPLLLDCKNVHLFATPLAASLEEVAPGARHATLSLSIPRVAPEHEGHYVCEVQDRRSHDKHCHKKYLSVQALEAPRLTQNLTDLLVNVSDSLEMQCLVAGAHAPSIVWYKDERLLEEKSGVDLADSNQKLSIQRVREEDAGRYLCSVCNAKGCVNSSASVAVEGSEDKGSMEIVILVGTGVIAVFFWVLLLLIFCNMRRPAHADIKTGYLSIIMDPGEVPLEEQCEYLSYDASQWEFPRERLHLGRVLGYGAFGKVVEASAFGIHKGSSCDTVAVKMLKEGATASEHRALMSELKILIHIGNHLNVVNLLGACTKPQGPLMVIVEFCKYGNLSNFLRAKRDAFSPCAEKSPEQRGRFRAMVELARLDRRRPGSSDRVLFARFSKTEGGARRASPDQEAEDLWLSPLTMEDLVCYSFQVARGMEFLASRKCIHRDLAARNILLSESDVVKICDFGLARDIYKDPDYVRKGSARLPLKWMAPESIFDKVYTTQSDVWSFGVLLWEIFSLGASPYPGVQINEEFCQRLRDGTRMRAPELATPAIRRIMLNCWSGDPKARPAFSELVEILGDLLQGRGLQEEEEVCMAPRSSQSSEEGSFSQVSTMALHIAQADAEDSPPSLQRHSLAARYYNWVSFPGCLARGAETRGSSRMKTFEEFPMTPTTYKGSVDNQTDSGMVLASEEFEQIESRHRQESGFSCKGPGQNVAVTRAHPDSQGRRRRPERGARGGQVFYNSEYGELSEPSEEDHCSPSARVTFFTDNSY
Method in brief: as §1

GRK5 = biological target: T5, GRK5 (Homo sapiens, UniProt P34947)
T5 construct: purchased Reaction Biology Corp
T5 sequence (P34947 whole entry): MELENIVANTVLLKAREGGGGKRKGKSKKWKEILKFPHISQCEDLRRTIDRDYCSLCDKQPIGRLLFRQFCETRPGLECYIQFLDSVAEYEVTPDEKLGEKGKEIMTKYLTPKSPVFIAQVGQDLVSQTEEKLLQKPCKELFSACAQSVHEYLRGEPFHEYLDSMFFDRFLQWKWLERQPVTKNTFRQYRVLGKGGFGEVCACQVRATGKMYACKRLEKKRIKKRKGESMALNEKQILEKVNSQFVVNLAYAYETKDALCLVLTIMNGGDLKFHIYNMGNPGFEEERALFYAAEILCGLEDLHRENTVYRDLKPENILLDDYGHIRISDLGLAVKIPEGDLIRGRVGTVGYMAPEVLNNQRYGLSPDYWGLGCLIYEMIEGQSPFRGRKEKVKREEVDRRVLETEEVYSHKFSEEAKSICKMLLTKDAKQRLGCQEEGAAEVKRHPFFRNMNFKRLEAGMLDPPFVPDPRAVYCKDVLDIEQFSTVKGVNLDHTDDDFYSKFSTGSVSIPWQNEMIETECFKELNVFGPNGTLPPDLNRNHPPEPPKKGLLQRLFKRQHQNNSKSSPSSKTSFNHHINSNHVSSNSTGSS
Method in brief: as §1

MNK2 = biological target: T6, MNK2 (Homo sapiens, UniProt Q9HBH9)
T6 construct: purchased Reaction Biology Corp
T6 sequence (Q9HBH9 whole entry): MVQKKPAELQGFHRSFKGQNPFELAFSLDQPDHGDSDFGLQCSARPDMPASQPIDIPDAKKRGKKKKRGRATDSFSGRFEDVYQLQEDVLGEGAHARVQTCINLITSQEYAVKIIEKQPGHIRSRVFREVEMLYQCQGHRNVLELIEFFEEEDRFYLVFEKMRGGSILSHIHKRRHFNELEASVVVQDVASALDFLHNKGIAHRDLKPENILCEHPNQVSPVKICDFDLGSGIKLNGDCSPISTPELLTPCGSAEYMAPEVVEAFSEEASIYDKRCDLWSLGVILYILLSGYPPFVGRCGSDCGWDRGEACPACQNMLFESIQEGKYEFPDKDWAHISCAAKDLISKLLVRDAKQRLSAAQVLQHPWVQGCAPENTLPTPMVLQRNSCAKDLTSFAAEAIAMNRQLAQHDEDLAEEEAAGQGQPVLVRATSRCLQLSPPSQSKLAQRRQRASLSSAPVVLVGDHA
Method in brief: as §1

PKG1b = biological target: T7, PKG1b (Homo sapiens, UniProt Q13976)
T7 construct: purchased Reaction Biology Corp
T7 sequence (Q13976 1-686 isoform Q13976-2): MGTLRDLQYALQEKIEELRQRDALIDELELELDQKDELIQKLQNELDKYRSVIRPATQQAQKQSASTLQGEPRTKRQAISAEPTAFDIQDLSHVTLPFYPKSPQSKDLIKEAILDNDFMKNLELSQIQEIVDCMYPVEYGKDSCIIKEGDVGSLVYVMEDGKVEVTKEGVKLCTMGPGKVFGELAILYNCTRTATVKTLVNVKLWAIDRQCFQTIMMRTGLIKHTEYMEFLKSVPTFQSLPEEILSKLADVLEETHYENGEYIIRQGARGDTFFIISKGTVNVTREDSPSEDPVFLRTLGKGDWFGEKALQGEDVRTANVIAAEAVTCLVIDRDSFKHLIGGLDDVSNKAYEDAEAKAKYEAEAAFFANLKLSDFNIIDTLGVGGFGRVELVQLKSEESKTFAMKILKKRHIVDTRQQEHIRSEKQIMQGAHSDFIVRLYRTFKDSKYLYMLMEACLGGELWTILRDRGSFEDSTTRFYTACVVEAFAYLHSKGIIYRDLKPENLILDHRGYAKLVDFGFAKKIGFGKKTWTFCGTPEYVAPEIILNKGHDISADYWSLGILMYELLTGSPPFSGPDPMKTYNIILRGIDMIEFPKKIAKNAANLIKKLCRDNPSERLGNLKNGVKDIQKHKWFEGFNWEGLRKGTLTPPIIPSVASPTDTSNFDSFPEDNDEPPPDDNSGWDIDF
Method in brief: as §1

RSK1 = biological target: T8, RSK1 (Homo sapiens, UniProt Q15418)
T8 construct: purchased Reaction Biology Corp
T8 sequence (Q15418 whole entry): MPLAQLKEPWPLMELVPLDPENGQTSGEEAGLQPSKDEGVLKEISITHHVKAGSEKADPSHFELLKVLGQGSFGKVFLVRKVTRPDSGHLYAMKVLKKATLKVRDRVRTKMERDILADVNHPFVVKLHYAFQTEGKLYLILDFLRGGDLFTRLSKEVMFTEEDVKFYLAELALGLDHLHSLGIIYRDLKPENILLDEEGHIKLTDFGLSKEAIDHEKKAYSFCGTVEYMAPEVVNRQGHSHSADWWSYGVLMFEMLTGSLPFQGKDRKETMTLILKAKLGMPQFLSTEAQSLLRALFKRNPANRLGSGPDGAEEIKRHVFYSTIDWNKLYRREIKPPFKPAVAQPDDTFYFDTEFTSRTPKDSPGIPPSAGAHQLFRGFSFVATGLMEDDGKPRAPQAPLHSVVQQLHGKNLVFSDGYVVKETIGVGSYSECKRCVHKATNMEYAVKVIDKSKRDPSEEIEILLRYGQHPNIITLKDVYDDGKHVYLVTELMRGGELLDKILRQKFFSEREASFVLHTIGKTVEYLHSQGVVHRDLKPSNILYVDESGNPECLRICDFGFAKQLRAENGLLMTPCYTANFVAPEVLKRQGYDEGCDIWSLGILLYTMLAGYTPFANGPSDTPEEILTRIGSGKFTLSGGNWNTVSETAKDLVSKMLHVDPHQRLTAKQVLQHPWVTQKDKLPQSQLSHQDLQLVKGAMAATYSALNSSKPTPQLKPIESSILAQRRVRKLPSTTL
Method in brief: as §1

SGK1 = biological target: T9, SGK1 (Homo sapiens, UniProt O00141)
T9 construct: purchased Reaction Biology Corp
T9 sequence (O00141 1-431): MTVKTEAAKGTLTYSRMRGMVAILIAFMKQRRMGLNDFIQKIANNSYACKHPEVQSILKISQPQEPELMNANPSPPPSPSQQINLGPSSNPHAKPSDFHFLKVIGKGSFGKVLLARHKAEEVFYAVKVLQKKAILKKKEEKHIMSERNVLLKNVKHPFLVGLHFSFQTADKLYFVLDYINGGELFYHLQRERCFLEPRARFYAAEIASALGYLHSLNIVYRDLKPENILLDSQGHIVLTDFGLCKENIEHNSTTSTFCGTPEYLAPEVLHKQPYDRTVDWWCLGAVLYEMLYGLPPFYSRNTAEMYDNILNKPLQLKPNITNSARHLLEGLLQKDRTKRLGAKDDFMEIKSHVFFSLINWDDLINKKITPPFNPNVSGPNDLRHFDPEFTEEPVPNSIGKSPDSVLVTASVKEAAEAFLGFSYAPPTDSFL
Method in brief: as §1

[1] = read-out: % Enzyme Activity (relative to DMSO controls) AVG
[2] = read-out: % Enzyme Activity (relative to DMSO controls) Data 1
[3] = read-out: % Enzyme Activity (relative to DMSO controls) Data 2

CC(C)(C)C(=O)N1N=CC[C@H]1c1ccccc1 [GSK′963]
remaining activity at 10 µM (BMPR2; [1]): 103% | remaining activity at 10 µM (BMPR2; [2]): 102% | remaining activity at 10 µM (BMPR2; [3]): 103% | remaining activity at 10 µM (CDK1/cyclin E; [1]): 98.2% | remaining activity at 10 µM (CDK1/cyclin E; [2]): 102% | remaining activity at 10 µM (CDK1/cyclin E; [3]): 94.7% | remaining activity at 10 µM (CDK2/cyclin E; [1]): 95.2% | remaining activity at 10 µM (CDK2/cyclin E; [2]): 95.7% | remaining activity at 10 µM (CDK2/cyclin E; [3]): 94.7% | remaining activity at 10 µM (FLT4/VEGFR3; [1]): 103% | remaining activity at 10 µM (FLT4/VEGFR3; [2]): 105% | remaining activity at 10 µM (FLT4/VEGFR3; [3]): 102% | remaining activity at 10 µM (GRK5; [1]): 99.4% | remaining activity at 10 µM (GRK5; [2]): 98.2% | remaining activity at 10 µM (GRK5; [3]): 101% | remaining activity at 10 µM (MNK2; [1]): 109% | remaining activity at 10 µM (MNK2; [2]): 107% | remaining activity at 10 µM (MNK2; [3]): 111% | remaining activity at 10 µM (PKG1b; [1]): 80.5% | remaining activity at 10 µM (PKG1b; [2]): 78.3% | remaining activity at 10 µM (PKG1b; [3]): 82.6% | remaining activity at 10 µM (RSK1; [1]): 126% | remaining activity at 10 µM (RSK1; [2]): 123% | remaining activity at 10 µM (RSK1; [3]): 128% | remaining activity at 10 µM (SGK1; [1]): 99.7% | remaining activity at 10 µM (SGK1; [2]): 99% | remaining activity at 10 µM (SGK1; [3]): 100%
